Laboratory results taken from US20230330058A1, “SENOLYTIC COMPOUNDS AND COMPOSITIONS” (NUCHIDO LIMITED, priority 2020, published 2023).
Entries after “also recorded” stand apart in the source; their conditions may differ. Where a name gives a salt, the structure may show the parent alone.

Key:
[1] = tested on: platelets; conditions: originally intended as anti-cancer drugs; cited from earlier work
[2] = tested on: senescent Human Dermal Fibroblasts (HDFs) versus non-senescent ('young') HDFs; assay: Senescence-specific assay: co-culture of labelled senescent and non-senescent cells, automated counting before and after 72 h incubation; format: cell-based; conditions: for selective senolytic activity: single agent, killing senescent cells over non-senescent cells; for increase of the senolytic effect of navitoclax: uncoupler together with navitoclax, efficacy at lower navitoclax concentrations (FIGS. 11, 12; senescent and proliferating cells); for senolytic activity in galactose media: glycolysis suppressed (FIGS. 5, 13); for selective senolytic activity at concentrations reached in humans: concentrations already known to be reached safely in humans, achievable blood plasma concentrations (FIG. 3)
Experimental: We developed a senescence-specific assay, employing automated counting of differentially labelled senescent and non-senescent cells in co-culture, before and after 72h incubation with each molecule or molecule combination.
Human Dermal Fibroblasts (HDFs) expressing pSLIEW (Green), or mCherry (Red) are used in the assay. The cells expressing pSLIEW (Green) are subjected to 20 Gy X-irradiation to induce senescence.
The test molecule is added to the co-culture, and the number of green and red cells are counted before and after 72 h incubation. A selective senolytic would be expected to diminish the proportion of green-expressing senescent cells, while leaving the number of red-expressing young cells unchanged or increased due to replication during the incubation period.
The experiments were carried out in 96-well plates, and the cells were imaged using fluorescent microscopy. The images were analysed with ICY software for automated cell counting, and both numbers of labelled cells and their other visible characteristics such as size were recorded.

[3] = tested on: aging in animals; conditions: cited from earlier work
[4] = tested on: senescent cells; conditions: cited from earlier work

Cc1c(-c2ccc(N3CCc4cccc(C(=O)Nc5nc6ccccc6s5)c4C3)nc2C(=O)O)cnn1CC12CC3CC(CC(C3)C1)C2 [A-1331852, 3-(1-(((3r,5r,7r)-adamantan-1-yl)methyl)-5-methyl-1H-pyrazol-4-yl)-6-(8-(benzo[d]thiazol-2-ylcarbamoyl)-3,4-dihydroisoquinolin-2(1H)-yl)picolinic acid]
side-effect profile [1]: thrombocytopaenia

C[C@@H]1CC[C@H]2[C@@H](C)C(=O)O[C@@H]3O[C@@]4(C)CC[C@@H]1[C@]32OO4 [Artemisinin]
selective senolytic activity [2]: showed selective senolytic activity

CN1C(=O)C(C(=O)Nc2nncs2)c2cc3occc3cc21 (stereo not drawn) [BML-288]
selective senolytic activity [2]: showed selective senolytic activity

CC(C)(C)c1cc(O)c(C(C)(C)C)cc1O [BTBHQ, 2,5-di-tert-butylhydroquinone]
selective senolytic activity [2]: showed selective senolytic activity

N#CC(C#N)=NNc1cccc(Cl)c1 [CCCP, Carbonyl cyanide m-chlorophenyl hydrazone]
increase of the senolytic effect of navitoclax [2]: increases the senolytic effect of navitoclax

O=[N+]([O-])c1ccc(O)c([N+](=O)[O-])c1 [DNP, 2,4-Dinitrophenol]
selective senolytic activity [2]: selective senolytic activity

O=C(O[C@@H]1Cc2c(O)cc(O)cc2O[C@@H]1c1cc(O)c(O)c(O)c1)c1cc(O)c(O)c(O)c1 [EGCG, epigallocatechin gallate]
selective senolytic activity [2]: showed selective senolytic activity

N#CC(C#N)=NNc1ccc(OC(F)(F)F)cc1 [FCCP, Carbonyl cyanide-p-trifluoromethoxyphenylhydrazone]
selective senolytic activity [2]: selective senolytic activity | increase of the senolytic effect of navitoclax [2]: increases the senolytic effect of navitoclax

CN1CCc2ccccc2Cc2[nH]c3ccccc3c2CC1 [LE300, 6,7,8,9,14,15-hexahydro-7-methyl-5H-indolo[3,2-f][3]benzazecine]
selective senolytic activity [2]: showed selective senolytic activity

O=C(O)CCCCC1CCSS1 (stereo not drawn) [alpha lipoic acid]
selective senolytic activity [2]: showed selective senolytic activity

O=c1cc(-c2ccc(O)cc2)oc2cc(O)cc(O)c12 [apigenin]
selective senolytic activity [2]: showed selective senolytic activity

OCCN1CCN(CCCN2c3ccccc3Sc3ccc(C(F)(F)F)cc32)CC1 [fluphenazine dihydrochloride]
selective senolytic activity ([2]; dihydrochloride): showed selective senolytic activity | selective senolytic activity ([2]; listed as fluphenazine hydrochloride, dihydrochloride): selective senolytic activity

C=CCc1ccc(O)c(-c2ccc(O)c(CC=C)c2)c1 [honokiol]
selective senolytic activity [2]: showed selective senolytic activity

C=CCc1ccc(O)c(-c2cc(CC=C)ccc2O)c1 [magnolol]
selective senolytic activity [2]: showed selective senolytic activity

CN(C)C(=N)N=C(N)N [metformin]
effect on aging in animals [3]: can delay aging in animals | senolytic activity in galactose media [2]: senolytic at physiological doses if glycolysis is suppressed; also recorded: senolytic when glycolysis is suppressed; also recorded: displays senolytic activity

CC1(C)CCC(c2ccc(Cl)cc2)=C(CN2CCN(c3ccc(C(=O)NS(=O)(=O)c4ccc(N[C@H](CCN5CCOCC5)CSc5ccccc5)c(S(=O)(=O)C(F)(F)F)c4)cc3)CC2)C1 [navitoclax]
senolytic agent in animal studies [4]: inducing apoptosis in senescent cells, but less in non-senescent cells | side-effect profile [1]: thrombocytopaenia

O=C(Nc1ccc([N+](=O)[O-])cc1Cl)c1cc(Cl)ccc1O [niclosamide]
selective senolytic activity at concentrations reached in humans [2]: selective senolytic activity | selective senolytic activity at concentrations reached in humans ([2]; listed as Niclosamide): selectively senolytic at concentrations that are already known to be reached safely in humans | selective senolytic activity [2]: showed selective senolytic activity

NC(=O)c1cccnc1 [nicotinamide]
selective senolytic activity [2]: showed selective senolytic activity

CC(=O)Oc1ccccc1C(=O)Nc1ncc([N+](=O)[O-])s1 [nitazoxanide]
senolytic activity in galactose media [2]: selective senolytic activity

O=c1c(O)c(-c2ccc(O)c(O)c2)oc2cc(O)cc(O)c12 [quercetin]
selective senolytic activity [2]: showed selective senolytic activity

Oc1ccc(C=Cc2cc(O)cc(O)c2)cc1 [resveratrol]
selective senolytic activity [2]: showed selective senolytic activity
